US11358956B2, “Compounds containing polysubstituted benzo[d][1,3]oxathiole, benzo[d][1,3]oxathiole 3-oxide or benzo[d][1,3]oxathiole 3,3-dioxide and methods/uses thereof as agonists of G protein-coupled receptor 119” (PRAMANA PHARMACEUTICALS INC., priority 2017, dated 2022)
Read-outs that look alike come from different tables or passages of the source.

Columns and labels:
human GPR119 receptor [1] = biological target: T1, human GPR119 receptor (Homo sapiens, UniProt Q8TDV5); test: LANCE Ultra cAMP assay: stimulation of GPR119-mediated cAMP production in CHO cells stably expressing human GPR119 receptor; format: cell-based
T1 construct: host or cells: CHO
T1 sequence (Q8TDV5 1-335): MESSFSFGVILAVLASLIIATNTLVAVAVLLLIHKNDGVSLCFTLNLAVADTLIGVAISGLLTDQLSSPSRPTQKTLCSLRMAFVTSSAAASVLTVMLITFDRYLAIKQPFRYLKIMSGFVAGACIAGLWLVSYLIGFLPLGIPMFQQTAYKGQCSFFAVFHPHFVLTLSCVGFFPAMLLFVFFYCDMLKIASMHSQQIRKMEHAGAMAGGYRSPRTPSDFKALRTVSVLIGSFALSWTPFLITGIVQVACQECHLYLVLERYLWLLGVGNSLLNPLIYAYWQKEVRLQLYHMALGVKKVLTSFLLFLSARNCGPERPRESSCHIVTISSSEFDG
Protocol: The potency of GPR119 receptor agonists was assessed by measuring the stimulation of GPR119-mediated cAMP production with LANCE Ultra cAMP assay (Perkin Elmer, TRF0264) in CHO cells stably expressing human GPR119 receptor (Chantest, cat. #A633). CHO-GPR119 cells were cultured in DMEM/F12 medium supplemented with 10% FBS and 1% NEAA at 37° C., 5% CO2, aliquoted and frozen in liquid nitrogen.
For assay, cells were thawed in a water bath at 37° C., washed in Hank's Balanced Salt Solution (HBSS) and resuspended in Stimulation Buffer 1 (SB1) for 30 min: 5 mM HEPES, pH 7.2-7.4, 0.1% BSA in HBSS. […] The ULight-anti-cAMP antibody (Perkin Elmer, TRF0264) was added to the cell suspension making Mix [Cell suspension/4× ULight-anti-cAMP antibodies]. The resulting cell suspension Mix was plated to 384-well assay plates (Corning, white low volume, #3674) 5 µL/well. The assay plate was centrifuged 200 g, 5 sec.
Serial dilution (100×) of tested compounds were prepared in DMSO in the range of from 30 nM to 1 mM with half-log step in 384-well plates (Greiner, 781280) using Biomek 2000. 10 test concentrations in two repeats were prepared for each CRC. It was diluted 50 times in SB1 and each tested concentration was added to cells in the assay plate—5 µL/well. The assay plate was incubated 30 minutes at room temperature on a shaker, 250 rpm to allow GPR119 receptor stimulation. The cAMP level was determined according to the standard kit supplier protocol (PerkinElmer, cat. #TRF0264).
The stock solution of the Eu-cAMP tracer (Perkin Elmer, TRF0264) was diluted 1:100 in cAMP Detection Buffer (Perkin Elmer, TRF0264), making 2× working concentration and added to the assay plate, 10 μL per well. Assay plate was centrifuged 180 g, 1 sec. Then the assay plate was incubated for 60′ at room temperature on shaker, 250 rpm to allow cAMP detection. The TR-FRET signal was measured at Ex-340 nm/Em-615 and Ex-340 nm/Em-665 nm on the reader Tecan M1000. 0% of cAMP stimulation corresponds to the cells with DMSO only, 100% of cAMP stimulation corresponds to the cells with […] Forskolin. The EC50 value defined as the concentration of the drug that gives half-maximal response, were calculated using GraphPad Prizm 5.0 software with forskolin was used as references at each test. Entries 1-17 in Table 2A and entries 1-14 in Table 2B show the biological activity of certain representative compounds using the protocol as described above.

human GPR119 receptor [2] = biological target: T1, human GPR119 receptor; test: as above; format: cell-based; settings: read-out: % cAMP Max. relative to forscolin
[3] = Table 2A entries 1-17, protocol as described (800,000 cells/mL suspension), CHO-GPR119 cells
[4] = Table 2C entries 1-4, modified protocol, 500 cells/well

Row | Compound | EC50 (human GPR119 receptor [1]; [3]) [nM] | Emax (human GPR119 receptor [2]; Table 2A entries 1-17, protocol as described, 100% = cells with Forskolin, 0% = DMSO only) [%] | EC50 (human GPR119 receptor [1]; [4]) [nM] | Emax (human GPR119 receptor [2]; [4]) [%]
1 | O=C(O)CN1CCC(COc2ccc(-c3ccc4c(c3)OCS4(=O)=O)cc2F)CC1 [Example A-23, 2-(4-((4-(3,3-Dioxido-2H-benzo[d][1,3]oxathiol-6-yl)-2-fluorophenyoxy) Methyl)-piperidin-1-yl)acetic Acid] | 7040 | 66 | – | –
2 | NCC(=O)N1CCC(COc2ccc(-c3ccc4c(c3)OCS4(=O)=O)cc2F)CC1 [Example A-17] | 10000 | – | – | –
3 | NC(=O)N1CCC(COc2ccc(-c3ccc4c(c3)OCS4(=O)=O)cc2F)CC1 [Example A-20] | 10000 | – | – | –

Next, values leading:

Row | EC50 (human GPR119 receptor [1]; [3]) [nM] | Emax (human GPR119 receptor [2]; Table 2A entries 1-17, protocol as described, 100% = cells with Forskolin, 0% = DMSO only) [%] | EC50 (human GPR119 receptor [1]; [4]) [nM] | Emax (human GPR119 receptor [2]; [4]) [%] | Compound
4 | – | – | 114 | 66 | O=S1(=O)c2ccc(-c3ccc(OCC4CCN(c5ncc(Cl)cn5)CC4)c(F)c3)cc2OC12CCCC2 [Example C-8, 5-chloro-2-(4-{[4-(3,3-dioxidospiro[1,3-benzoxathiole-2,1′-cyclopentan]-6-yl)-2-fluorophenoxy]methyl}piperidin-1-yl)pyrimidine]
5 | – | – | 68.6 | 81 | CC1(C)Oc2cc(-c3ccc(OCC4CCN(c5ncc(Cl)cn5)CC4)c(F)c3)ccc2S1(=O)=O [Example C-5, 5-chloro-2-(4-{[4-(2,2-dimethyl-3,3-dioxido-1,3-benzoxathiol-6-yl)-2-fluorophenoxy]methyl}piperidin-1-yl)pyrimidine]
6 | – | – | 33 | 25 | O=S1(=O)c2ccc(-c3ccc(OCC4CCN(c5ncc(Cl)cn5)CC4)c(F)c3)cc2OC12CCCCC2 [Example C-11, 5-chloro-2-(4-{[4-(3,3-dioxidospiro[1,3-benzoxathiole-2,1′-cyclohexan]-6-yl)-2-fluorophenoxy]methyl}piperidin-1-yl)pyrimidine]
7 | – | – | 29.8 | 67 | O=S1(=O)c2ccc(-c3ccc(OCC4CCN(c5ncc(Cl)cn5)CC4)c(F)c3)cc2OC12CCC2 [Example C-14, 5-chloro-2-(4-{[4-(3,3-dioxidospiro[1,3-benzoxathiole-2,1′-cyclobutan]-6-yl)-2-fluorophenoxy]methyl}piperidin-1-yl)pyrimidine]
